Data set [1] concerns the target T1, Calf intestinal alkaline phosphatase (CIAP) (Bos taurus, UniProt P19111).
T1 construct: purchased Sigma
The experiment in a line: Alkaline phosphatase dephosphorylation, free sulfhydryl groups measured with DTNB (Ellman's Reagent) at A412. It counts as biochemical. As to the method:
Assays were performed to verify the ability of alkaline phosphatase to dephosphorylate compound (7) to create sulfydryl reactive groups. Calf intestinal alkaline phosphatase (CIAP, Sigma) was diluted in phosphate buffered saline (PBS) to 250 units/ml, and frozen in tubes containing 100 μl aliquots.
A second assay was performed to examine the ability of alkaline phosphatase to dephosphorylate compound (7) to create sulfydryl reactive groups. A 12.5 mM solution of Compound 7 was made (4 mg/ml) and used in the test reactions.
A time course of dephosphorylation was also performed using Compound 7, following the same reaction conditions as in Table 3.
For orientation: In Ellman's method for cholinesterases, released thiocholine reacts with DTNB.

The next data set relates to HepG2. As to the method: The compound ((S)-ethyl 2-amino-5-((R)-1-ethoxy-1-oxo-3-(phosphonothio)propan-2-ylamino)-5-oxopentanoate monosodium salt) was tested for intracellular properties. In particular, experiments were conducted to determine the ability of the compound to enter into cells and generate glutathione. HepG2 were incubated with the compound with or without added bovine intestinal alkaline phosphatase (Sigma). Cells were scraped into SSA, vortexed and then spun.

The test system of the next data set is mice. To be noted: doses up to 5 mmoles/animal.
In a further data set the test system is hamsters. To be noted: doses up to 5 mmoles/animal.
The conditions of data set [2]: co-administration of reduced glutathione, clinical trial; cited from earlier work.
For data set [3] the following is noted: randomized Phase III human trials: head and neck cancer, lung cancer, carboplatin myelosuppression, rectal cancer; cited from earlier work.

The structures appear in SMILES notation. Values joined by “and” are separate entries in the source; they are usually repeats but may differ in a detail not shown here. Equal values may be shown once.

T1 sequence (P19111 20-506): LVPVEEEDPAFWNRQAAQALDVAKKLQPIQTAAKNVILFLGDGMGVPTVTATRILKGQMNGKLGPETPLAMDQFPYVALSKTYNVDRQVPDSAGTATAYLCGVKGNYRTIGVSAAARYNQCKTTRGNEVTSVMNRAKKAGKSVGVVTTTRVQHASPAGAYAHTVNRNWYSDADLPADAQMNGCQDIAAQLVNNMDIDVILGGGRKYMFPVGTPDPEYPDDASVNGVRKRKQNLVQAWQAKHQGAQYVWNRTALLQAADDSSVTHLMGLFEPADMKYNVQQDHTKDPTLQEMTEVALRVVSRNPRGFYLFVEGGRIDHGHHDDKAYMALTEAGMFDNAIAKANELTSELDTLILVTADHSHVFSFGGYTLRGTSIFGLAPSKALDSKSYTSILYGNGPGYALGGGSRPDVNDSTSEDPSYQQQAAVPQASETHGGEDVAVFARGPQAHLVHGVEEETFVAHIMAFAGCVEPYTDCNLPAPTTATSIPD

Consider `CCOC(=O)[C@H](CSP(=O)([O-])O)NC(=O)CC[C@H](N)C(=O)OCC.[Na+]` [Compound 7, (S)-ethyl 2-amino-5-((R)-1-ethoxy-1-oxo-3-(phosphonothio)propan-2-ylamino)-5-oxopentanoate monosodium salt], for which the “time course of dephosphorylation (free sulfhydryl groups)” value in data set [1] (30 min. period, A412 readings at 3 min. intervals, conditions as in Table 3) is listed as “time dependent”. Further, in data set [1] (conclusion from Table 3), the “dephosphorylation by alkaline phosphatase” value is “dephosphorylated by alkaline phosphatase to yield free reactive sulfhydryl groups”. For the same compound, the A412 in data set [1] (with CIAP (50 μl): 10 μl 12.5 mM C7, 100 μl DTNB, 840 μl PBS, 10 min 37° C., listed as C7, monosodium salt) is 0.547 and 0.526; in data set [1] (without CIAP (negative reaction): 10 μl 12.5 mM C7, 100 μl DTNB, 890 μl PBS, 10 min 37° C., listed as C7, monosodium salt) it was 0.044 and 0.039. The “increase in cellular GSH” value with HepG2 (HepG2, compound and alkaline phosphatase, in the presence of buthionine sulfoximine) is listed as “greater than 5 fold”. Moreover, the entry into cells result with HepG2 (HepG2, without prior hydrolysis of the phosphate group by alkaline phosphatase) is recorded as “did not enter cells”. Besides, the toxicity to cells result with HepG2 (HepG2 incubated with compound with or without alkaline phosphatase) is given as “did not exhibit any evidence of toxicity”. Further, the “increase in GSH contents” value in the data set on HepG2 (HepG2 treated with the compound and alkaline phosphatase) is given as 3.6 fold. Also, the overt toxicity result in the data set with mice and with hamsters was “no overt toxicity” each time.

`N[C@@H](CCC(=O)N[C@@H](CS)C(=O)NCC(=O)O)C(=O)O` [GSH, glutathione, reference compound] gave an A412 in data set [1] (reaction 1, positive control: 10 μl 2 mM GSH, 100 μl DTNB, 890 μl PBS, no CIAP, 5 min room temperature) of 0.35. Moreover, the “neuropathy seen with oxaliplatin” value in data set [2] was “significantly reduce the neuropathy”.

Consider `NCCCNCCSP(=O)(O)O` [AF, S-2-(3-aminopropylamino)ethylphosphorothioic acid, reference compound], for which the A412 is given as 0.00 in data set [1] (reaction 2: 10 μl 5 mM AF, 890 μl PBS, no CIAP, no DTNB, 10 min room temperature); 0.00 in data set [1] (reaction 3: 10 μl 5 mM AF, 25 μl CIAP, 865 μl PBS, no DTNB, 10 min room temperature); 0.03 in data set [1] (reaction 4: 20 μl 5 mM AF, 50 μl CIAP (so in the source), 100 μl DTNB, 880 μl PBS, 10 min room temperature); 0.34 in data set [1] (reaction 5: 20 μl 5 mM AF, 50 μl CIAP, 100 μl DTNB, 830 μl PBS, 10 min room temperature). The “toxicity of chemotherapy and radiation therapy” value in data set [3] is “reduce toxicity”.

These data come from patent publication US8435956B2, “Compositions and methods for protecting cells from toxic exposures” (Percitus Biosciences, LLC, priority 2007, dated 2013).
